Consider 16 compounds from ChEMBL document CHEMBL5316297, “Mechanistic Insight of Synthesized 1,4-Dihydropyridines as an Antidiabetic Sword against Reactive Oxygen Species” (J Med Chem, 2023).

The nature of data set [1]: Acute toxicity in Swiss albino mouse assessed as effect on motor alterations up to 2000 mg/kg, po administered for 14 days. It counts as organism-based. Conditions: in vivo, 336 h, time 14 day.
For data set [2], the system named is Mus musculus. As to the kind of experiment: Antidiabetic activity against high fat diet-STZ-induced diabetic Swiss albino mouse model assessed as reduction in blood glucose level at 0.2 mmol/Kg/day, po administered for 14 days. It counts as functional. The conditions noted are these: time 14 day.
The test system of data set [3] is Mus musculus. Nature of the data set: Antidiabetic activity against high fat diet-STZ-induced diabetic Swiss albino mouse model assessed as reduction in blood glucose level at 0.2 mmol/Kg/day, po administered for 14 days relative to glimepiride. It counts as functional. The arrangement: scale not given: the % may be the effect or the level left. Conditions: time 14 day.

Data set [4] has as its system Mus musculus. As to the kind of experiment: Antidiabetic activity against high fat diet-STZ-induced diabetic Swiss albino mouse model assessed as reduction in blood glucose level at 0.2 mmol/Kg/day, po administered for 14 days relative to control. It counts as functional. More on the design: scale not given: the % may be the effect or the level left. The conditions noted are these: time 14 day.

Data set [5] can be described thus: Toxicity in high fat diet-STZ-induced diabetic Swiss albino mouse model assessed as changes in body weight at 0.2 mmol/Kg/day, po administered for 14 days (reference value: 26.6 to 27.8 g). Conditions: in vivo, 336 h, time 14 day. It counts as organism-based.
Data set [6] in a line: Acute toxicity in Swiss albino mouse assessed as effect on mortality up to 2000 mg/kg, po administered for 14 days. The conditions noted are these: in vivo, 336 h, time 14 day. It counts as organism-based.
Data set [7] in a line: Acute toxicity in Swiss albino mouse assessed as toxic symptoms up to 2000 mg/kg, po administered for 14 days. It counts as organism-based. Conditions: in vivo, 336 h, time 14 day.
Data set [8] in a line: Acute toxicity in Swiss albino mouse assessed as effect on behavioural change up to 2000 mg/kg, po administered for 14 days. It counts as organism-based. The conditions noted are these: in vivo, 336 h, time 14 day.
Data set [9] in a line: Cytotoxicity against human MCF-10F cells assessed as cell growth inhibition at 10 uM relative to control. It counts as toxicity, cell-based. The conditions noted are these: read-out: GI.
Data set [10] can be described thus: Cytotoxicity against human WPE1-NA22 cells assessed as cell growth inhibition at 10 uM relative to control. It counts as toxicity, cell-based. The conditions noted are these: read-out: GI.
Data set [11] is described as follows: Cytotoxicity against human BJ cells assessed as cell growth inhibition at 10 uM relative to control. The conditions noted are these: read-out: GI. It counts as toxicity, cell-based.
Data set [12] in a line: Cytotoxicity against human MRC5 cells assessed as cell growth inhibition at 10 uM relative to control. It counts as toxicity, cell-based. The conditions noted are these: read-out: GI.
The nature of data set [13]: Cytotoxicity against human ECT1/E6E7 cells assessed as cell growth inhibition at 10 uM relative to control. It counts as toxicity, cell-based. Conditions: read-out: GI.
Data set [14] in a line: Cytotoxicity against human THLE-2 cells assessed as cell growth inhibition at 10 uM relative to control. The conditions noted are these: read-out: GI. It counts as toxicity, cell-based.
The nature of data set [15]: Cytotoxicity against human HCN-1A cells assessed as cell growth inhibition at 10 uM relative to control. It counts as toxicity, cell-based. The conditions noted are these: read-out: GI.
Data set [16] can be described thus: Cytotoxicity against HEK293 cells assessed as cell growth inhibition at 10 uM relative to control. It counts as toxicity, cell-based. Conditions: human, read-out: GI.
The subject of data set [17] is Mus musculus. Nature of the data set: Antidiabetic activity against high fat diet-STZ-induced diabetic Swiss albino mouse model assessed as insulin resistance by measuring serum TNFalpha level at 0.2 mmol/Kg/day, po administered for 14 days by ELISA method (reference value: 376.50+/-14.50 ng/ml). It counts as functional. Conditions: time 14 day. (In general: An ELISA detects its analyte on a solid surface through an enzyme-linked reagent.)

The test system of data set [18] is Mus musculus. As to the kind of experiment: Antioxidant activity against high fat diet-STZ-induced diabetic Swiss albino mouse model assessed as serum MDA level at 0.2 mmol/Kg/day, po administered for 14 days (reference value: 8.70+/- 0.09 nmol/ml). It counts as functional. The conditions noted are these: time 14 day.
In data set [19] the test system is Mus musculus. Nature of the data set: Antioxidant activity against high fat diet-STZ-induced diabetic Swiss albino mouse model assessed as serum catalase level at 0.2 mmol/Kg/day, po administered for 14 days (reference value: 378.22+/- 14.45 U/ml). It counts as functional. The conditions noted are these: time 14 day.
In data set [20] the test system is Mus musculus. As to the kind of experiment: Antidiabetic activity against high fat diet-STZ-induced diabetic Swiss albino mouse model assessed as insulin resistance by measuring serum IL6 level at 0.2 mmol/Kg/day, po administered for 14 days by ELISA method (reference value: 39.30+/-4.14 pg/ml). Conditions: time 14 day. It counts as functional.
Data set [21] has as its system Mus musculus. Nature of the data set: Antidiabetic activity against high fat diet-STZ-induced diabetic Swiss albino mouse model assessed as serum insulin level at 0.2 mmol/Kg/day, po administered for 14 days by ELISA method (reference value: 16.37 +/- 0.62 uU/ml). The conditions noted are these: time 14 day. It counts as functional.
Data set [22] has as its system Mus musculus. As to the kind of experiment: Antioxidant activity against high fat diet-STZ-induced diabetic Swiss albino mouse model assessed as serum SOD level at 0.2 mmol/Kg/day, po administered for 14 days (reference value: 273.01+/- 6.23 U/ml). It counts as functional. Conditions: time 14 day.

For the compound `COC(=O)C1=C(C)NC(C)=C(C(=O)OC)C1c1ccc2c(c1)OCCO2`, the Activity entry in data set [1] was “Non-Toxic”; with Mus musculus [2], 153.21 mg/dL; in the data set on Mus musculus [3], 145%; with Mus musculus [4], 48.62%; in [5], 27.3 g; in [6], “Non-Toxic”. The Activity entry in [7] and in [8] was “Non-Toxic” each time.
Take `C[C@H]1O[C@H](O[C@H]2[C@H](O)[C@@H](O)[C@@H](O[C@H]3[C@H](O)[C@@H](O)C(O)O[C@@H]3CO)O[C@@H]2CO)[C@H](O)[C@@H](O)[C@@H]1N[C@H]1C=C(CO)[C@@H](O)[C@H](O)[C@H]1O` (some centres undefined) [ACARBOSE]: the inhibition at 10 µM in data set [9] amounted to 10.5%; in data set [10], 55.3%; in data set [11], 47.8%; in data set [12] it was 32.3%; in [13], 20.1%; in [14], 19.1%. Further, the inhibition at 10 µM in [15] stood at 44.3%; in [16] it was 80.7%.
Take `COC(=O)C1=C(C)NC(C)=C(C(=O)OC)C1c1cccc2c1OCO2`: the Activity entry is “Non-Toxic” in data set [1]; 114.42 mg/dL with Mus musculus [2]; 184% in the data set with Mus musculus [3]; 61.63% in the data set on Mus musculus [4]; 26.6 g in data set [5]; “Non-Toxic” in data set [6]. Besides, the Activity entry in data set [7] and in [8] was “Non-Toxic” throughout.
With `CCOC(=O)C1=C(C)NC(C)=C(C(=O)OC(C)(C)C)C1c1cccc2c1OCO2` (centres undefined), the Activity entry in data set [1] is “Non-Toxic”; in the data set with Mus musculus [17] it was 1050.5 ng/mL; in the data set on Mus musculus [2], 223.65 mg/dL; in the data set on Mus musculus [18], 20.99 nmol/mL; in the data set on Mus musculus [19] it was 183.21 U/ml; in the data set with Mus musculus [20], 403.17 pg/mL. Moreover, the Activity is recorded as under 1% with Mus musculus [3]; 0.25% with Mus musculus [4]; 28.6 g in [5]; “Non-Toxic” in data set [6]; 7.01 uU/ml with Mus musculus [21]; “Non-Toxic” in data set [7]. For the same compound, the Activity entry in [8] is “Non-Toxic”; in the data set with Mus musculus [22], 175.14 U/ml.
Regarding `COC(=O)C1=C(C)NC(C)=C(C(=O)OCc2ccccc2)C1c1ccc2c(c1)OCO2` (centres undefined), the Activity entry in data set [1] is “Non-Toxic”; with Mus musculus [2], 170.33 mg/dL; with Mus musculus [3], 128%; in the data set with Mus musculus [4], 42.88%; in [5], 27.4 g; in data set [6] it was “Non-Toxic”. Besides, the Activity result in data set [7] and in data set [8] was “Non-Toxic” throughout.
With `COC(=O)C1=C(C)NC(C)=C(C(=O)OC(C)C)C1c1ccc2c(c1)OCO2` (centres undefined), the Activity entry in [1] was “Non-Toxic”; in the data set with Mus musculus [2] it was 244.26 mg/dL; with Mus musculus [3] it was 54%; in the data set with Mus musculus [4], 18.09%; in [5], 28.3 g; in data set [6], “Non-Toxic”. For the same compound, the Activity result in data set [7] and in data set [8] was “Non-Toxic” each time.
Consider `COC(=O)C1=C(C)NC(C)=C(C(=O)OC)C1c1ccc2c(c1)Cc1ccccc1-2`, for which the Activity entry was “Non-Toxic” in data set [1]; 296.98 mg/dL in the data set on Mus musculus [2]; 1% in the data set with Mus musculus [3]; 0.41% with Mus musculus [4]; 29.2 g in data set [5]; “Non-Toxic” in data set [6]. Moreover, the Activity result in data set [7] and in data set [8] was “Non-Toxic” throughout.
Consider `CCOC(=O)C1=C(C)NC(C)=C(C(=O)OC)C1c1ccc2c(c1)OCO2` (centres undefined), for which the Activity entry in data set [1] was “Non-Toxic”; with Mus musculus [2] it was 138.36 mg/dL; with Mus musculus [3], 160%; with Mus musculus [4], 53.6%; in [5], 27.4 g; in [6], “Non-Toxic”. Also, the Activity entry in [7] and in [8] was “Non-Toxic” in each case.
With `CCOC(=O)C1=C(C)NC(C)=C(C(=O)OCCOC)C1c1cccc2c1OCO2` (centres undefined), the Activity entry in data set [1] is “Non-Toxic”; with Mus musculus [2], 164.33 mg/dL; in the data set on Mus musculus [3], 134%; in the data set with Mus musculus [4], 44.89%; in [5] it was 27.2 g; in [6], “Non-Toxic”. In addition, the Activity entry in data set [7] and in data set [8] was “Non-Toxic” each time.
With `CCOC(=O)C1=C(C)NC(C)=C(C(=O)OC(C)C)C1c1cccc2c1OCO2` (centres undefined), the Activity entry is “Non-Toxic” in [1]; 297.39 mg/dL with Mus musculus [2]; under 1% with Mus musculus [3]; 0.27% with Mus musculus [4]; 28.9 g in [5]; “Non-Toxic” in [6]. Also, the Activity entry in data set [7] and in data set [8] was “Non-Toxic” throughout.
Consider `CC1=C(C(=O)OC(C)C)C(c2cccc3c2OCO3)C(C(=O)OC(C)C)=C(C)N1`, for which the Activity result in data set [1] is “Non-Toxic”; in the data set on Mus musculus [2], 268.23 mg/dL; in the data set on Mus musculus [3], 30%; with Mus musculus [4], 10.05%; in data set [5], 28.9 g; in [6], “Non-Toxic”. Further, the Activity entry in [7] and in data set [8] was “Non-Toxic” each time.
Take `CCOC(=O)C1=C(C)NC(C)=C(C(=O)OCc2ccccc2)C1c1ccc2c(c1)OCO2` (centres undefined): the Activity result in data set [1] is “Non-Toxic”; in the data set on Mus musculus [2], 169.35 mg/dL; with Mus musculus [3], 129%; in the data set with Mus musculus [4], 43.21%; in data set [5], 27.3 g; in [6], “Non-Toxic”. Moreover, the Activity result in [7] and in data set [8] was “Non-Toxic” throughout.
As to `COCCOC(=O)C1=C(C)NC(C)=C(C(=O)OC)C1c1ccc2c(c1)OCO2` (centres undefined), the Activity entry in data set [1] was “Non-Toxic”; in the data set on Mus musculus [2] it was 260.24 mg/dL; in the data set on Mus musculus [3] it was 38%; in the data set with Mus musculus [4] it was 12.73%; in data set [5], 28.6 g; in [6], “Non-Toxic”. In addition, the Activity result in [7] and in [8] was “Non-Toxic” each time.
For `COC(=O)C1=C(C)NC(C)=C(C(=O)OCc2ccccc2)C1c1cccc2c1OCO2` (centres undefined), the Activity entry in data set [1] was “Non-Toxic”; in the data set with Mus musculus [2] it was 168.33 mg/dL; in the data set with Mus musculus [3], 130%; in the data set with Mus musculus [4] it was 43.55%; in data set [5], 27.4 g; in data set [6], “Non-Toxic”. For the same compound, the Activity result in data set [7] and in [8] was “Non-Toxic” throughout.
As to `CCOC(=O)C1=C(C)NC(C)=C(C(=O)OCc2ccccc2)C1c1cccc2c1OCO2` (centres undefined), the Activity entry in data set [1] was “Non-Toxic”; in the data set with Mus musculus [2], 166.34 mg/dL; with Mus musculus [3] it was 132%; in the data set with Mus musculus [4], 44.22%; in [5] it was 27.2 g; in [6], “Non-Toxic”. Further, the Activity result in [7] and in [8] was “Non-Toxic” each time.
With `CCOC(=O)C1=C(C)NC(C)=C(C(=O)OCCOC)C1c1ccc2c(c1)OCO2` (centres undefined), the Activity result is “Non-Toxic” in data set [1]; 167.32 mg/dL in the data set with Mus musculus [2]; 131% in the data set with Mus musculus [3]; 43.89% in the data set on Mus musculus [4]; 27.2 g in data set [5]; “Non-Toxic” in data set [6]. Moreover, the Activity result in [7] and in data set [8] was “Non-Toxic” each time.
